What was measured:
[1] = tested on: Propionibacterium acnes NCTC 737; test: MBC assay; type: cell-based; conditions: P. acnes NCTC 737
Description: (§1) The propionibacteria were cultured and maintained on Wilkins-Chalgren Anaerobe Medium (agar and broth) at pH 6.0; all cultures were incubated anaerobically at 37° C. for 72 hours.
(§2) This assay, normally carried out after an MIC assay, determines the minimum concentration of a compound that is lethal to the micro-organism being tested.
(§3) These samples were then individually sub-cultured on antibiotic-free agar medium, under the incubation conditions described above. Following incubation they were examined visually for microbial growth.

P. acnes PRP-046 = test: Agar dilution MIC assay; type: cell-based, Propionibacterium acnes; conditions: Cutibacterium acnes, PRP046, resistance phenotype None
Description: as §1
(§4) This is a standard international method for quantitatively assessing the antimicrobial activity of a compound in a solid medium. The test compound was prepared to 40× the highest concentration required (e.g. 10 mg/ml for a final concentration of 250 μg/ml) and a series of doubling dilutions were performed in a suitable solvent. A set amount of these antimicrobial stock solutions was then added to molten agar medium (ca. 55° C.), mixed thoroughly, poured into sterile Petri dishes and allowed to cool/set. The culture medium was as described above.
(§5) A Multipoint™ Inoculator (AQS Manufacturing Ltd, UK) was used to inoculate the plates by spotting the inocula onto the surface of the agar, delivering approximately 1 to 2 μl per spot (yielding 10^5 CFU (colony forming units) per spot).
(§6) The plate(s) were then incubated under the conditions described above, following which they were examined visually for signs of bacterial growth. The MIC value was ascertained when there was a marked reduction in, or total loss of, growth on the test plate at the lowest concentration as compared to that of the growth on the control plate.
(§7) The assays were conducted in triplicate and included a positive control (culture medium, diluting solvent and inoculum).

P. acnes PRP-059 = test: Agar dilution MIC assay; type: cell-based, Propionibacterium acnes; conditions: Cutibacterium acnes, PRP059, resistance phenotype MLS
Description: as §1, §4, §5, §6, §7

P. acnes PRP-004 = test: Agar dilution MIC assay; type: cell-based, Propionibacterium acnes; conditions: Cutibacterium acnes, PRP004, resistance phenotype Tet
Description: as §1, §4, §5, §6, §7

P. acnes PRP-017 = test: Agar dilution MIC assay; type: cell-based, Propionibacterium acnes; conditions: Cutibacterium acnes, PRP017, resistance phenotype MLS
Description: as §1, §4, §5, §6, §7

P. acnes PRP-010 = test: Agar dilution MIC assay; type: cell-based, Propionibacterium acnes; conditions: Cutibacterium acnes, PRP010, resistance phenotype MLSK
Description: as §1, §4, §5, §6, §7

P. acnes PRP-002 = test: Agar dilution MIC assay; type: cell-based, Propionibacterium acnes; conditions: Cutibacterium acnes, PRP002, resistance phenotype Tet/MLS
Description: as §1, §4, §5, §6, §7

P. acnes PPR-007 = test: Agar dilution MIC assay; type: cell-based, Propionibacterium acnes; conditions: Cutibacterium acnes, PPR007
Description: as §1, §4, §5, §6, §7

P. acnes PRP-039 = test: Agar dilution MIC assay; type: cell-based, Propionibacterium acnes; conditions: Cutibacterium acnes, PRP039, resistance phenotype Tet/MLS
Description: as §1, §4, §5, §6, §7

S. aureus CPHL EMRSA 16 = test: MBC assay; type: cell-based, Staphylococcus aureus; conditions: resistance phenotype Met/β-lactams
Description: (§8) The staphylococci were cultured and maintained on Mueller-Hinton Medium (agar and broth) at pH 7.2; cultures were incubated aerobically at 37° C. for 19-20 hours.
as §2, §3

S. aureus CPHL EMRSA 15 = test: MBC assay; type: cell-based, Staphylococcus aureus; conditions: resistance phenotype Met/β-lactams
Description: as §8, §2, §3

S. aureus ATCC 12600-U = test: MBC assay; type: cell-based, Staphylococcus aureus
Description: as §8, §2, §3

S. aureus NCTC 12493 = test: MBC assay; type: cell-based, Staphylococcus aureus
Description: as §8, §2, §3

S. aureus ATCC 12606 = test: MBC assay; type: cell-based, Staphylococcus aureus
Description: as §8, §2, §3

S. aureus ATCC 12605 = test: MBC assay; type: cell-based, Staphylococcus aureus
Description: as §8, §2, §3

S. aureus ATCC 12604 = test: MBC assay; type: cell-based, Staphylococcus aureus
Description: as §8, §2, §3

S. aureus ATCC 12601 = test: MBC assay; type: cell-based, Staphylococcus aureus
Description: as §8, §2, §3

[2] = tested on: Porphyromonas gingivalis NCTC 11834; test: MIC assay; type: cell-based; conditions: NCTC11834
Description: (§9) The P. gingivalis strains were cultured and maintained on Wilkins-Chalgren Anaerobe Medium (agar and broth) at pH 7.0; all cultures were incubated anaerobically at 37° C. for 5-7 days.
(§10) This is a standard international method for quantitatively assessing the antimicrobial activity of a compound in a liquid medium. The method used a sterile 96-well microtitre plate, capable of holding about 200 μl of liquid per well. The wells contained liquid culture medium and ranges of decreasing concentrations of the relevant test compound in doubling dilutions (e.g. 1000, 500, 250, 125 . . . μg/ml, etc. down to 0.49 μg/ml). The culture media were as described above.
(§11) The wells were inoculated with a liquid suspension of freshly grown micro-organism and incubated under the conditions described above. After incubation, the microtitre plate was examined visually (with the aid of a light box) for cloudiness in each well, which would indicate microbial growth. The MIC value was recorded as the lowest concentration of test compound required to inhibit microbial growth, i.e. the lowest concentration for which the liquid in the well remained clear.
(§12) The assays included both negative (culture medium with no micro-organisms) and positive (culture medium plus diluting solvent plus micro-organism) controls.

[3] = tested on: Porphyromonas gingivalis ATCC BAA-308; test: MIC assay; type: cell-based; conditions: ATCCBAA308
Description: as §9, §10, §11, §12

[4] = tested on: Porphyromonas gingivalis ATCC 53978; test: MIC assay; type: cell-based; conditions: ATCC53978
Description: as §9, §10, §11, §12

[5] = tested on: acyl-CoA: cholesterol acyltransferase (ACAT); conditions: compound isolated from Aspergillus fumigatus, believed to be Antioxidant 2246; cited from earlier work

Cc1cc(Cc2cc(C)cc(C(C)(C)C)c2O)c(O)c(C(C)(C)C)c1 [AO 2246, 2,2′-methylene-bis(4-methyl-6-tert-butylphenol)]
3.9 µg/mL: MIC (P. acnes PRP-046) | MIC (P. acnes PRP-059) | MIC (P. acnes PRP-004) | MIC (P. acnes PRP-017) | MIC (P. acnes PRP-010) | MIC (P. acnes PRP-002) | MIC (P. acnes PRP-039) | MBC (S. aureus ATCC 12606; Staphylococcus aureus, ATCC12606) | MBC (S. aureus ATCC 12604; Staphylococcus aureus, ATCC12604) | MIC [2] | MIC [3]
1.95 µg/mL: MIC (P. acnes PPR-007) | MBC (S. aureus NCTC 12493; Staphylococcus aureus, NCTC12493) | MBC (S. aureus ATCC 12605; Staphylococcus aureus, ATCC12605) | MBC (S. aureus ATCC 12601; Staphylococcus aureus, ATCC12601)
0.06: MIC/MBC Ratio (S. aureus ATCC 12600-U)
1: MIC/MBC Ratio (S. aureus ATCC 12605) | MIC/MBC Ratio (S. aureus ATCC 12601)
0.98 µg/mL: MIC [4]
0.5: MIC/MBC Ratio (S. aureus NCTC 12493; S. aureus NCTC 12493, resistance phenotype Met) | MIC/MBC Ratio (S. aureus ATCC 12606) | MIC/MBC Ratio (S. aureus ATCC 12604)
inhibitor: inhibitor of the enzyme ACAT [5]
15.6 µg/mL: MBC ([1]; Cutibacterium acnes, NCTC737) | MBC (S. aureus ATCC 12600-U; Staphylococcus aureus, ATCC12600)
0.25: MIC/MBC Ratio [1] | MIC/MBC Ratio (S. aureus CPHL EMRSA 16) | MIC/MBC Ratio (S. aureus CPHL EMRSA 15)
7.8 µg/mL: MBC (S. aureus CPHL EMRSA 16; Staphylococcus aureus) | MBC (S. aureus CPHL EMRSA 15; Staphylococcus aureus)
